According to patent publication US4550166A, “(Pyridinyl)-1,2,4-triazolo[4,3-a]pyridines” (American Cyanamid Company, priority 1984, dated 1985):

Columns and labels:
[1] = system: Brain-specific Receptors of Rats (^3 H-benzodiazepine binding); assay: Inhibition of the Binding of ^3 H--Benzodiazepine to Brain-specific Receptors of Rats; parameters: species or system rats (male albino, Wistar strain); details: 1 μM; whole cortex of rats, P2 fraction; ^3 H-diazepam (1.5 nM) or ^3 H-flunitrazepam (1.0 nM)
[2] = system: clonic seizures caused by pentylenetetrazole in rats; assay: Protection Against Clonic Siezures Caused by Pentylenetetrazole in Rats; type: in vivo; details: Dose 25 mg/kg, orally or intraperitoneally, pentylenetetrazole 23 mg/kg i.v. at 30 or 60 minutes
Protocol: The antianxiety properties of the novel compounds of the present invention have been established in a test which indicates anxiolytic activity by the measure of protection from convulsions resulting from the administration of pentylenetetrazole. Single or graded dose levels of the test compounds were administered orally or intraperitoneally in a 2% starch vehicle, containing 0.5% v/v polyethylene glycol and one drop of Polysorbate 80 to groups of at least four rats. At 30 or 60 minutes, the rats were treated intravenously with pentylenetetrazole at a dose of 23 mg/kg of body weight. This dose is estimated to cause clonic seizures in 99% of unprotected rats.
It has been reported [R. T. Hill and D. H. Tedeschi, "Animal Testing and Screening Procedures in Evaluating Psychotropic Drugs" in An Introduction to Psychopharmacology, Eds. R. R. Rech and K. E. Moore, Raven Press, New York, pp 237-288 (1971)] that there is a high degree of correlation between antagonism of pentylenetetrazole seizures in rats and antianxiety effects in higher warm-blooded animals.

[3] = system: conflict situation in rats; assay: Non-Conditioned Passive Avoidance Test in Rats; type: in vivo, Wistar strain rats; parameters: key: Active: considered active if the number of shocks received by the test group is significantly higher than the control group by the Mann-Witney U test; details: Dose 25 mg/kg, oral or intraperitoneal, 30 or 60 minutes
Protocol: Another test which has been used to assess anti-anxiety effects is a non-conditioned passive avoidance procedure described by J. R. Vogel, B. Beer and D. E. Clody, "A Simple and Reliable Conflict Procedure for Testing Antianxiety Agents", Psychopharmacologia, 21, 1-7 (1971). A conflict situation was induced in rats by a modification of this method.
Groups of 6 naive, Wistar strain rats, weighing 200-240 g each, were deprived of water for 48 hours and food for 24 hours. The test compounds were administered in single or graded, oral or intraperitoneal doses, suspended in a 2% starch vehicle containing 0.5% v/v polyethylene glycol and one drop of Polysorbate 80. Control animals received the vehicle alone. At 30 or 60 minutes each rat was placed in an individual plexiglass chamber. Water was available ad libitum from a tap located in the rear of the chamber. A 0.7 milliampere DC shocking current was established between the stainless steel grid floor and the tap. After 20 licks of non-shocked drinking, a shock was delivered for 2 seconds and then further shocks were delivered on a ratio of one shock for 2 seconds for every 20 licks. This was continued for a total of 3 minutes. The number of shocks taken by each rat during the 3 minute interval was recorded and compared to a control group.

Compound | % Inhibition [1] | % of Rats Protected [2] | Result [3]
Cc1nnc2ccc(-c3cccnc3)cn12 [3-Methyl-6-(3-pyridinyl)-1,2,4-triazolo[4,3-a]pyridine] | 20% | 75% | –
Cc1nnc2cc(-c3ccncc3)ccn12 [3-Methyl-7-(4-pyridinyl)-1,2,4-triazolo[4,3-a]pyridine] | 24% | – | –
Cc1nnc2c(-c3cccnc3)cccn12 [3-Methyl-8-(3-pyridinyl)-1,2,4-triazolo[4,3-a]pyridine] | 24% | – | Active
Cc1nnc2c(-c3ccccn3)cccn12 [3-Methyl-8-(2-pyridinyl)-1,2,4-triazolo[4,3-a]pyridine] | 22% | – | Active
c1ccc(-c2ccn3cnnc3c2)nc1 [7-(2-Pyridinyl)-1,2,4-triazolo[4,3-a]pyridine] | 15% | 25% | –
c1cncc(-c2ccc3nncn3c2)c1 [6-(3-Pyridinyl)-1,2,4-triazolo[4,3-a]pyridine] | 13% | 33% | –
c1ccc(-c2cccn3cnnc23)nc1 [8-(2-Pyridinyl)-1,2,4-triazolo[4,3-a]pyridine] | 26% | – | –
c1cncc(-c2cccn3cnnc23)c1 [8-(3-Pyridinyl)-1,2,4-triazolo[4,3-a]pyridine] | 18% | – | –
c1ccc(-c2cccc3nncn23)nc1 [5-(2-Pyridinyl)-1,2,4-triazolo[4,3-a]pyridine] | 26% | – | –
Cc1nnc2cc(-c3ccccn3)ccn12 [3-Methyl-7-(2-pyridinyl)-1,2,4-triazolo[4,3-a]pyridine] | 27% | – | –
